Measured values published in patent publication US6861448B2, “NAD synthetase inhibitors and uses thereof” (priority 1998, dated 2005).
Converted amounts (≈) assume the structure as drawn. Read-outs that look alike come from different tables or passages of the source.

Assays:
C. albicans = experiment: MIC test, fungal growth inhibition; assay type: cell-based; details: in vitro
Experimental: (§1) The MIC test procedures conformed to the present protocol from the National Committee for Clinical Laboratory Standards (NCCLS), and were designed to provide basic antimicrobial data on compounds based on the MIC of the active component.
(§2) The test compounds were solubilized, diluted, and pipetted in duplicate into 10 mL sterile culture tubes and dried under vacuum.
(§3) Challenge organisms, specified were grown overnight at 37° C. in the appropriate medium (i.e., Mueller-Hinton Broth). These pure broth cultures were diluted 1:1,000 and 2.0 mL were added to the test compound tubes.
(§4) Appropriate media controls, challenge organism viability controls, and antibiotic control dilutions (i.e., ampicillin and nystatin), were prepared in the same manner as the test compounds and run against the challenge organisms.

A. niger = experiment: MIC test, fungal growth inhibition; assay type: cell-based; details: in vitro
Experimental: Antimicrobial Testing (P. aeruginosa, E. coli, B. subtilis, S. aureus, S. aureus (MCR), A. niger and M. flavescens.)
as §1, §2, §3, §4

S. aureus (MCR) = experiment: microbe, parasite or virus in culture; assay type: cell-based; details: for MIC: Staphylococcus aureus, read-out: Minimal Inhibitory Concentration (MIC), S. aureus (MCR), multiple values = two or more tests; for Minimal Inhibitory Concentration (MIC), S. aureus (MCR): multiple values = two or more tests
[1] = system: Bacillus anthracis Sterne 34F2; experiment: microbe, parasite or virus in culture; assay type: cell-based; details: for MIC: Bacillus anthracis
[2] = system: rabbit primary renal cells (RPRC); experiment: Cytotoxicity in rabbit primary renal cells (annexin V / PI flow cytometry); assay type: cell-based; details: 24 hr, mean ± SEM; for % CELLULAR NECROSIS (RPRC): at 300 μM; for % APOPTOSIS (RPRC): at peak effect (30 μM)
Experimental: Cytotoxicity in Rabbit Primary Renal Cells
Isolation of Proximal Tubules and Culture Conditions
Rabbit renal proximal tubules were isolated using the iron oxide perfusion method and grown in 35-mm tissue culture dishes under improved conditions. The cell culture medium was a 1:1 mixture of DMEM/Ham's F-12 (without D-glucose, phenol red, or sodium pyruvate) supplemented with 15 mM HEPES buffer, 2.5 mM L-gluatmine, 1 μM pyridoxine HCL, 15 mM sodium bicarbonate, and 6 mM lactate. Hydrocortisone (50 nM), selenium (5 ng/mL), human transferrin (5 μg/mL), bovine insulin (10 nM) and L-ascorbic acid-2-phosphate (50 μM) were added to fresh culture medium immediately prior to daily media change.
All numbered compounds were diluted in methanol and the final concentration of methanol in RPRC was less then 0.1% (v/v).
Measurement of RPRC Death
Cell death was monitored in RPRC by assessment of both annexin V and PI staining using flow cytometry. Briefly, RPRC were exposed to the indicated concentrations of compounds for 24 hr. Media was removed and RPRC washed twice with phosphate-buffered saline (PBS) and incubated in a binding buffer (10 mM HEPES, 140 mM NaCL, 5 mM KCL, 1 mM MgCl2, 1.8 mM CaCl2, pH=7.4) containing annexin V-FITC (1 μmol) and PI (25 μg/mL). After a 10 min incubation, RPRC were washed three times in the binding buffer and were released from the monolayers by gentle scrapping with a rubber policeman. Annexin V and PI staining were measured using a BectonDickson FacsCalibur flow cytometer (San Jose, Calif.). An equal number of cells (10,000) were counted for sample and apoptotic cells were defined as those that stained positive for annexin V-FITC only. RPRC undergoing necrotic cell death stained for PI only.
RPRC isolated from one rabbit represented one experiment (n=1). Data were analyzed and are reported as means±standard error of the mean of at least 3 separate experiments.

NAD synthetase = NAD synthetase (Bacillus subtilis, UniProt P08164); experiment: NAD synthetase coupled enzyme assay; assay type: biochemical
Chain of NAD synthetase (P08164 whole entry): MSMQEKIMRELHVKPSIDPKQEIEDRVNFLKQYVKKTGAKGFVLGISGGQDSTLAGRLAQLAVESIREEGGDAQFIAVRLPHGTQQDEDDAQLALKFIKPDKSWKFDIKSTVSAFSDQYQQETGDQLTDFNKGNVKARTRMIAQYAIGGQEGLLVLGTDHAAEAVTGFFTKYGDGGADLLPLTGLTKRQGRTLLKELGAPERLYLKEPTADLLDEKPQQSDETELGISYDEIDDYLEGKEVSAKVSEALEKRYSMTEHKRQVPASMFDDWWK
Excerpt: This Example illustrates the NAD synthetase enzyme inhibiting activity of some compounds of the present invention. [drawing 48] The coupled assay—production of NAD was monitored through conversion to NADH by alcohol dehydrogenase. [NADH] was monitored by 2 parallel methods: the change in absorbance at 340 nm, and fluorescence at 460 nm (excitation 320 nm). […] Controls were included for determining inhibitor background, precipitation, and ADH inhibition.

B. subtilis = experiment: microbe, parasite or virus in culture; assay type: cell-based; details: multiple values = two or more tests; for MIC: Bacillus subtilis, read-out: Minimal Inhibitory Concentration (MIC), B. subtilis
[3] = STERNE34F2, read-out: approximate MIC, B. anthracis (first value)
[4] = STERNE34F2, read-out: approximate MIC, B. anthracis (second value)
[5] = NAD synthetase 2.0 μg/mL, 0.1 mM NaAD, 0.2 mM ATP, pH 8.5

Compound: C[C@@H]1[C@H](O)[C@@H](C)/C=C/C=C/C=C/C=C/C=C/C=C/C=C/[C@H](O[C@@H]2O[C@H](C)[C@@H](O)[C@H](N)[C@@H]2O)C[C@@H]2O[C@](O)(C[C@@H](O)C[C@@H](O)[C@H](O)CC[C@@H](O)C[C@@H](O)CC(=O)O[C@H]1C)C[C@H](O)[C@H]2C(=O)O [Amphotericin B, reference compound]
- Potency to inhibit growth, C. albicans (MIC) (C. albicans): <1.56 µg/mL
- Potency to inhibit growth, A. niger (MIC) (A. niger): <1.56 µg/mL

Compound: CC1(C)S[C@@H]2[C@H](NC(=O)[C@H](N)c3ccccc3)C(=O)N2[C@H]1C(=O)O [Ampicillin, reference compound]
- MIC (S. aureus (MCR)): > 50 µg/mL

Compound: O=C(O)c1cn(C2CC2)c2cc(N3CCNCC3)c(F)cc2c1=O [Ciprofloxacin, reference compound]
- MIC [1, 3]: 0.25 µg/mL (≈ 0.754 µM)
- MIC [1, 4]: 0.125 µg/mL (≈ 0.377 µM)
- % CELLULAR NECROSIS (RPRC) [2]: 4 ± 1%
- % APOPTOSIS (RPRC) [2]: 9 ± 3%

Compound: C[N+](C)(C)C(Cc1ccccc1)C(=O)OCCCCCCCCOc1ccc(OCc2cccc(Cl)c2)cc1.[I-] (stereo not shown) [Compound 1391]
- IC50 (NAD synthetase; [5]): 11.5 µM
- Minimal Inhibitory Concentration (MIC), B. subtilis (B. subtilis): <3.13 µg/mL
- Minimal Inhibitory Concentration (MIC), S. aureus (MCR) (S. aureus (MCR)): <1.56 µg/mL

Compound: CN(C)c1ccc(C(=O)Oc2ccc(OCCCCCCCCOC(=O)C(Cc3ccccc3)[N+](C)(C)C)cc2)cc1 (stereo not shown) [Compound 1484]
- IC50 (NAD synthetase; [5]): 14.8 µM
- MIC (B. subtilis): < 3.13 µg/mL
- MIC (S. aureus (MCR)): < 0.78 µg/mL

Compound: C[N+](C)(C)C(Cc1c[nH]c2ccccc12)C(=O)OCCCCCCCn1ccc2cc(OCc3ccccc3)ccc21 (stereo not shown) [Compound 1505]
- IC50 (NAD synthetase; [5]): 6.6 µM
- MIC (B. subtilis): < 0.78 µg/mL
- MIC (S. aureus (MCR)): < 0.78 µg/mL

Compound: C[N+](C)(C)C(Cc1ccccc1)C(=O)NCCCCCCCCOc1ccc(OC(=O)c2cccc(Cl)c2)cc1 (stereo not shown) [Compound 1594]
- IC50 (NAD synthetase; [5]): 25 µM
- MIC [1, 3]: 8 µg/mL
- MIC [1, 4]: 32 µg/mL
- MIC (B. subtilis): > 50 µg/mL
- MIC (S. aureus (MCR)): < 6.25 µg/mL
- % CELLULAR NECROSIS (RPRC) [2]: 29 ± 4%
- % APOPTOSIS (RPRC) [2]: 13 ± 2%

Compound: C[N+](C)(C)C(Cc1ccccc1)C(=O)NCCCCCCCCOc1ccc(OC(=O)c2cc(F)cc(F)c2F)cc1 (stereo not shown) [Compound 1617]
- IC50 (NAD synthetase; [5]): 31.4 µM
- MIC [1, 3]: 16 µg/mL
- MIC (B. subtilis): < 12.5 µg/mL
- MIC (S. aureus (MCR)): < 6.25 µg/mL
- % CELLULAR NECROSIS (RPRC) [2]: 18 ± 2%
- % APOPTOSIS (RPRC) [2]: 23 ± 3%

Compound: C[N+](C)(C)c1ccc(CC(=O)NCCCCCCCCOc2ccc(OC(=O)c3ccccc3Cl)cc2)cc1 [Compound 1622]
- IC50 (NAD synthetase; [5]): 34.2 µM

Compound: C[N+](C)(C)c1ccc(CC(=O)NCCCCCCCCOc2ccc(OC(=O)c3cccc(Cl)c3)cc2)cc1 [Compound 1623]
- IC50 (NAD synthetase; [5]): 33.9 µM

Compound: C[N+](C)(C)c1ccc(CC(=O)NCCCCCCCCOc2ccc(OC(=O)c3ccc(Cl)cc3)cc2)cc1 [Compound 1624]
- IC50 (NAD synthetase; [5]): 31.2 µM

Compound: CC(C)Oc1ccc(C(=O)Oc2ccc(OCCCCCCCCNC(=O)Cc3ccc([N+](C)(C)C)cc3)cc2)cc1 [Compound 1629]
- IC50 (NAD synthetase; [5]): 21.1 µM

Compound: C[N+](C)(C)c1ccc(CC(=O)NCCCCCCCCOc2ccc(OC(=O)c3cccc(Cl)c3Cl)cc2)cc1 [Compound 1632]
- IC50 (NAD synthetase; [5]): 18.5 µM

Compound: C[N+](C)(C)c1ccc(CC(=O)NCCCCCCCCOc2ccc(OC(=O)c3ccc(Cl)cc3Cl)cc2)cc1 [Compound 1633]
- IC50 (NAD synthetase; [5]): 20.4 µM

Compound: C[N+](C)(C)c1ccc(CC(=O)NCCCCCCCCOc2ccc(OC(=O)c3cc(Cl)ccc3Cl)cc2)cc1 [Compound 1634]
- IC50 (NAD synthetase; [5]): 21.2 µM

Compound: C[N+](C)(C)c1ccc(CC(=O)NCCCCCCCCOc2ccc(OC(=O)c3c(Cl)cccc3Cl)cc2)cc1 [Compound 1635]
- IC50 (NAD synthetase; [5]): 35.1 µM

Compound: C[N+](C)(C)c1ccc(CC(=O)NCCCCCCCCOc2ccc(OC(=O)c3cc(Cl)cc(Cl)c3)cc2)cc1 [Compound 1637]
- IC50 (NAD synthetase; [5]): 23.3 µM

Compound: C[N+](C)(C)c1ccc(CC(=O)NCCCCCCCCOc2ccc(OC(=O)c3cc(Cl)cc(Cl)c3Cl)cc2)cc1 [Compound 1644]
- IC50 (NAD synthetase; [5]): 23.9 µM

Compound: C[N+](C)(C)c1ccc(CC(=O)NCCCCCCCCOc2ccc(OC(=O)c3c(Cl)cc(Cl)cc3Cl)cc2)cc1 [Compound 1645]
- IC50 (NAD synthetase; [5]): 18.1 µM

Compound: C[N+](C)(C)c1ccc(CC(=O)NCCCCCCCCOc2ccc(OC(=O)c3cc(F)c(F)c(F)c3)cc2)cc1 [Compound 1650]
- IC50 (NAD synthetase; [5]): > 50 µM

Compound: C[n+]1cccc(C(=O)NCCCCCCCCOc2ccc(OC(=O)c3ccc(Cl)cc3)cc2)c1 [Compound 1653]
- IC50 (NAD synthetase; [5]): 19.5 µM

Compound: C[n+]1cccc(C(=O)NCCCCCCCCOc2ccc(OC(=O)c3cccc(Cl)c3Cl)cc2)c1 [Compound 1661]
- IC50 (NAD synthetase; [5]): 23.7 µM

Compound: C[n+]1cccc(C(=O)NCCCCCCCCOc2ccc(OC(=O)c3cc(Cl)ccc3Cl)cc2)c1 [Compound 1663]
- IC50 (NAD synthetase; [5]): 18.4 µM

Compound: C[n+]1cccc(C(=O)NCCCCCCCCOc2ccc(OC(=O)c3c(Cl)cccc3Cl)cc2)c1 [Compound 1664]
- IC50 (NAD synthetase; [5]): 19.9 µM

Compound: C[n+]1cccc(C(=O)NCCCCCCCCOc2ccc(OC(=O)c3ccc(Cl)c(Cl)c3)cc2)c1 [Compound 1665]
- IC50 (NAD synthetase; [5]): 19.6 µM

Compound: C[n+]1cccc(C(=O)NCCCCCCCCOc2ccc(OC(=O)c3cc(F)c(F)c(F)c3)cc2)c1 [Compound 1678]
- IC50 (NAD synthetase; [5]): 36.5 µM

Compound: N=C(N)N[C@H](COCCCCCCCCOc1ccc(OCc2ccccc2)cc1)Cc1ccccc1 [Compound 1679]
- IC50 (NAD synthetase): 10.4 µM

Compound: N=C(N)N[C@H](COCCCCCCCCOc1ccc(OCc2ccccc2)cc1)Cc1ccccc1 [Compound 1680]
- IC50 (NAD synthetase; [5]): 10.1 µM

Compound: N=C(N)N[C@@H](Cc1ccccc1)C(=O)NCCCCCCCCOc1ccc(OCc2ccccc2)cc1 [Compound 1681]
- IC50 (NAD synthetase; [5]): 12.9 µM

Compound: N=C(N)N[C@@H](Cc1ccccc1)C(=O)NCCCCCCCCOc1ccc(OCc2ccccc2)cc1 [Compound 1682]
- IC50 (NAD synthetase; [5]): 17.6 µM

Compound: Cl.N=C(N)N[C@H](COCCCCCCCCOc1ccc(OCc2ccccc2)cc1)Cc1ccccc1 [Compound 1685]
- IC50 (NAD synthetase; [5]): 9.9 µM
- approximate MIC, B. anthracis (first value) ([1]; first value of cell, standard broth dilution assay using bacterial growth media (order assumed)): 4; 4 μg/mL
- approximate MIC, B. anthracis (second value) ([1]; second value of cell, visual turbidity, bacteria cultured in mammalian cell culture media (order assumed)): 4; 4 μg/mL
- Minimal Inhibitory Concentration (MIC), B. subtilis (B. subtilis): <3.13 µg/mL
- Minimal Inhibitory Concentration (MIC), S. aureus (MCR) (S. aureus (MCR)): <0.78 µg/mL

Compound: C[N+](C)(C)C.[I-] [TMAI, tetramethylammonium iodide, reference compound]
- % CELLULAR NECROSIS (RPRC) [2]: 2 ± 1%
- % APOPTOSIS (RPRC) [2]: 5 ± 1%
